Columns and labels:
[1] = system: induced haploid germplasms (A and B); assay: Co-dominant ear induction by PBZ soil drench in colchicine-treated haploid maize (Example 1); assay type: in vivo
Source text: V1-V3 seedlings of two unique F1 hybrid-derived haploid maize lines, derived from: female heterotic group (Germplasm A) or male heterotic group (Germplasm B), were subjected to a bulk colchicine-based chromosome doubling treatment by removing the seedlings from soil or growth media at the V1-V3 growth stage and aligning their stems and wrapping them together along with several wooden rods into bundle a held together by a strip of aluminum foil (approximate foil strip dimensions were 6 in×18 in). The bundled plants were submerged in plant treatment solution comprising 1250 ppm of colchicine in a centrifuge container and then the entire sample was centrifuged at 50 g for 3 min while the shoot apical meristems (SAMs) remained submerged in the plant treatment agent solution.
Following the first centrifugation, the plant treatment solution was decanted and the seedlings subjected to an addition centrifugation at 335 g for 3 min. During the second centrifugation, the rod-wrap bundle supported the seedlings and prevented the SAMs from contacting the reserve treatment agent that was not absorbed by the plant during application of the centrifugal force.
Following the second centrifugation, the plants were removed from the centrifugation container and the rod-wrap bundle and rinsed with water to remove any remaining colchicine solution, and then recovered and tended in a light, humidity, and temperature-controlled greenhouse for several days before being transplanted to a nursery greenhouse. These centrifuge-based treatment methods are described in more detail in International application number PCT/US2015/028955, which is incorporated by reference herein in its entirety, however, standard doubling treatments can also be applied to any of the haploid doubling steps referred to herein.
Following colchicine doubling treatment, 15-20 plants from each germplasm were planted in pots at two different densities; either as single plants per pot (singles), or as two plants per pot (pairs).
Next, each plant received one of two different doses of PBZ, either 50 mL (low dose) or 60 mL (high dose) of a 2.5% PBZ solution (v/v; 0.4% of active ingredient) in water. These two different doses were applied by soil drench at either the V7 or V8 growth stage, which occurred a total of 23 or 26 days after the seedlings had been subjected to chromosome doubling treatment, respectively. A control group of plants received no treatment solution but were otherwise treated exactly as the experimental groups planted as singles. When pollen shed began at the tassels, the average number of silk-producing ears (i.e. co-dominant ears) were counted for each dosage, germplasm, and treatment time and the results summarized in Table. 1.

haploid mother plant = assay: Tiller induction with doubled haploid mother plant (Example 7); assay type: in vivo, maize
Protocol: A haploid mother plant will be subjected to doubling treatment and thereafter planted in a pot, the soil surrounding the roots drenched with 100 mL of 2.5% of paclobutrazol, and then tended standard maize green house growing conditions for several days. […] One of the resulting daughter tiller plants can be separated from the mother plant, transplanted into a separate pot, and grown via standard green house management procedures to eventually recover a daughter plant with normal haploid morphology.

## CC(C)(C)[C@H](O)[C@H](Cc1ccc(Cl)cc1)n1cncn1 (relative stereo) [PBZ, (2S,3S)-1-(4-chlorophenyl)-4,4-dimethyl-2-(1,2,4-triazol-1-yl) pentan-3-ol]
[1]; V7, Germplasm A, planted as pairs, low dose (50 mL 2.5% PBZ)
  number of co-dominant ears formed per plant: 3
[1]; all plants, high vs low dosage
  average EP of high dosage greater than EP of low dosage: 0.31
[1]; only the singles
  high-dose EP average higher than the low-dose: 0.55
[1]; singles subjected to the low dose
  minimum increase of EP over control plants: ≥ 1.2 EP
Haploid mother plant; daughter tiller separated and transplanted
  DH1 seeds yielded by daughter tiller plant when selfed: several dozen DH1 seeds
Haploid mother plant; haploid mother plant after doubling treatment, 100 mL of 2.5% paclobutrazol soil drench
  morphology and tiller production of mother plant: shortened internodes and increased tiller production

Reference: patent US12108719B2, “Methods for creating doubled haploid plants” (Monsanto Technology LLC, priority 2015, dated 2024)
